Experimental data reported in patent publication EP0394868A1, “New antibiotics NK372135, process for the production thereof and use thereof” (Nippon Kayaku Kabushiki Kaisha, priority 1989, dated 1990).
In brackets after ≈: the same amount, converted by molar mass.

Assays:
Assay type in all cases: cell-based
Candida albicans [1] = assay: Anti-Candida activity, growth in bouillon medium (absorbance at 595 nm); details: Candida albicans 2 x 10³ cell/well, 30°C for 16 hours
Description: The anti-Candida activity of NK372135B was compared with that of methoxy-xanthocillin X dimethyl ether which is shown in The Journal of Antibiotics Vol 34 (1981) No. 12, P1556 ∼ 1561.
Candida albicans was inoculated into a 96-well plate at a density of 2 x 10³ cell/well with the use of 0.2 cc of a bouillon medium. Then a test compound of various concentrations was added thereto and the microorganism was incubated at 30°C for 16 hours. Then the absorbance of each well at 595 nm was measured and IC₅₀ was calculated from the dose response curve. […] Thus it was found out that the saturation of the double bond in methoxy-xanthocillin X dimethyl ether enhanced the anti-Candida activity.

PC-3 = assay: Cytotoxicity, growth inhibition by methylene blue method; details: Homo sapiens, 96 h, RPMI 1640, 10% fetal calf serum, two to four days with compound, read-out: Cytotoxicity IC₅₀
Description: (§1) The cytotoxicities of NK372135A, B and C and methoxy-xanthocillin monomethyl ether (XTM) which is an analog thereof were examined. 2,000 cells of each of G361, SW1116, PC-3 and Li-7 cell strains were inoculated into a 96-well plate and incubated at 37°C under 5% CO₂ for 24 hours. An RPMI 1640 medium containing 10% of fetal calf serum was employed as a medium. After incubating for 24 hours, a test compound of a given concentration was added thereto and the incubation was further conducted for two to four days. Subsequently, the cells were counted by the methylene blue method so as to evaluate the extent of the growth inhibition.

SW1116 = assay: as above; details: Homo sapiens, SW 1116, 96 h, RPMI 1640, 10% fetal calf serum, two to four days with compound, read-out: Cytotoxicity IC₅₀
Description: as §1

Li-7 = assay: as above; details: RPMI 1640, 10% fetal calf serum, two to four days with compound; for IC50: 96 h, read-out: Cytotoxicity IC₅₀
Description: as §1

G361 = assay: as above; details: Homo sapiens, G-361, 96 h, RPMI 1640, 10% fetal calf serum, two to four days with compound, read-out: Cytotoxicity IC₅₀
Description: as §1

5-lipoxygenase = molecular target: T1, 5-lipoxygenase (Cavia porcellus, UniProt A0A286X958); assay: 5-lipoxygenase inhibitory activity in ionophore-stimulated peritoneal cells (5-HETE by HPLC); details: Guinea pig peritoneal cells, ionophore A 23187 + arachidonic acid
T1 construct: the peritoneal cells of the animals were collected; endogenous in cells; host or cells: casein-elicited peritoneal cells of Hartley guinea pigs
T1 sequence (A0A286X958 1-674): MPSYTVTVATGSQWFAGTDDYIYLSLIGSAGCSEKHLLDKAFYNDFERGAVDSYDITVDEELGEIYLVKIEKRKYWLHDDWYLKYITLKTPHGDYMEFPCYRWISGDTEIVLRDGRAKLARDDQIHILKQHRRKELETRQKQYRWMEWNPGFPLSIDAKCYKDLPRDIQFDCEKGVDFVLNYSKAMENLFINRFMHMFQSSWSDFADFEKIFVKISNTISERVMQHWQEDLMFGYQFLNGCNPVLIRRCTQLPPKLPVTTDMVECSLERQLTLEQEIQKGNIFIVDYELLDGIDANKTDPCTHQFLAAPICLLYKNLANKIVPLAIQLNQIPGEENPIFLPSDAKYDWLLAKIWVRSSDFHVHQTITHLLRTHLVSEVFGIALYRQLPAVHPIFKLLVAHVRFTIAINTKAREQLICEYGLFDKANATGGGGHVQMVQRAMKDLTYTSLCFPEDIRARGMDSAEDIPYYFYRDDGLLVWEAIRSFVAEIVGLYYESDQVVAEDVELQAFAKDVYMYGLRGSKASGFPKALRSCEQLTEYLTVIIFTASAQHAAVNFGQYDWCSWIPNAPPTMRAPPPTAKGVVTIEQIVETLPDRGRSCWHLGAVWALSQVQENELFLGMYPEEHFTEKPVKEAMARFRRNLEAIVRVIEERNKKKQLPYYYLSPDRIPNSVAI
Description: The 5-lipoxygenase inhibitory activities of the compounds of the present invention were examined.
The 5-lipoxygenase inhibitory activity was evaluated from the inhibitory activity on ionophore stimulation on Guinea pig peritoneal cells in the following manner.
A 2% casein solution was intraperitoneally administered to Hartley Guinea pigs weighing 250 to 350 g. 18 hours after the administration, the peritoneal cells of the animals were collected. The contaminating erythrocytes were hemolyzed and centrifuged. To the cell fraction thus obtained was added a 50 mM phosphate buffer solution (pH 7.0) containing […] of indomethacin and the concentration of the peritoneal cells was adjusted to 1 x 10⁷ cell/-ml. To 1.0 ml of the cell suspension thus obtained, a test compound of various concentrations was added so as to give a final concentration of 100 µM. Then the mixture was incubated at 37°C for five minutes. Next, 1.0 µg of lonophore A 23187 and 10 µg of arachidonic acid were added thereto and the reaction was initiated. After 20 minutes, the reaction was ceased by adding 4 ml of ethanol. The reaction supernatant was analyzed by HPLC in accordance with the method of Amano et al. [Vitamin, 59, 211 - 219 (1985)] so as to detect 5-hydroxyeicosatetraenoic acid (5-HETE) which was a metabolite derived from arachidonic acid.

Staphylococcus aureus = assay: Antimicrobial spectrum, paper disc agar diffusion; details: 8 mm paper disc, 100 µg/ml solution, 37°C for a day and night, read-out: Diameter of inhibition zone (mm)
Description: (§2) The antimicrobial spectra of the compounds of the present invention were examined.
(§3) Table 1 gives the antimicrobial spectra of NK372135A, C and D. A paper disc of 8 mm in diameter was immersed in a solution containing 100 µg/ml of NK372135A, C or D and then placed on an agar medium in which a test strain had been grown. Regarding the four strains listed in the upper part of Table 1 and Candida albicans, each culture was conducted at 37°C for a day and night, while other strains were cultured at 25°C for a day and night. Then the diameter of each inhibition zone thus formed was measured. […] Since no existing antifungal agent exerts a satisfactory effect on fungi, the compounds of the present invention are highly expected as effective antifungal agents.

Fusarium roseum = assay: Antimicrobial spectrum, paper disc agar diffusion; details: Fusarium sambucinum, read-out: Diameter of inhibition zone (mm)
Description: as §2, §3

[2] = tested on: Trichophyton mentagrophytes; assay: Antimicrobial spectrum, paper disc agar diffusion; details: 8 mm paper disc, 100 µg/ml solution, 25°C for a day and night, read-out: Diameter of inhibition zone (mm)
Description: as §2, §3

Botrytis fabae = assay: Antimicrobial spectrum, paper disc agar diffusion; details: 8 mm paper disc, 100 µg/ml solution, 25°C for a day and night, read-out: Diameter of inhibition zone (mm)
Description: as §2, §3

Candida albicans [3] = assay: Antimicrobial spectrum, paper disc agar diffusion; details: 8 mm paper disc, 100 µg/ml solution, 37°C for a day and night, read-out: Diameter of inhibition zone (mm)
Description: as §2, §3

Escherichia coli = assay: Antimicrobial spectrum, paper disc agar diffusion; details: 8 mm paper disc, 100 µg/ml solution, 37°C for a day and night, read-out: Diameter of inhibition zone (mm)
Description: as §2, §3

Aspergillus oryzae = assay: Antimicrobial spectrum, paper disc agar diffusion; details: 8 mm paper disc, 100 µg/ml solution, 25°C for a day and night, read-out: Diameter of inhibition zone (mm)
Description: as §2, §3

Mycobacterium smegmatis = assay: Antimicrobial spectrum, paper disc agar diffusion; details: Mycolicibacterium smegmatis, 8 mm paper disc, 100 µg/ml solution, 37°C for a day and night, read-out: Diameter of inhibition zone (mm)
Description: as §2, §3

Mucor japonicus = assay: Antimicrobial spectrum, paper disc agar diffusion; details: 8 mm paper disc, 100 µg/ml solution, 25°C for a day and night, read-out: Diameter of inhibition zone (mm)
Description: as §2, §3

Saccharomyces cerevisiae = assay: Antimicrobial spectrum, paper disc agar diffusion; details: 8 mm paper disc, 100 µg/ml solution, 25°C for a day and night, read-out: Diameter of inhibition zone (mm)
Description: as §2, §3

Bacillus subtilis = assay: Antimicrobial spectrum, paper disc agar diffusion; details: 8 mm paper disc, 100 µg/ml solution, 37°C for a day and night, read-out: Diameter of inhibition zone (mm)
Description: as §2, §3

Mycosphaerella melonis = assay: Antimicrobial spectrum, paper disc agar diffusion; details: 8 mm paper disc, 100 µg/ml solution, 25°C for a day and night, read-out: Diameter of inhibition zone (mm)
Description: as §2, §3

Molecule | IC50 (PC-3) [µg/mL] | IC50 (SW1116) [µg/mL] | IC50 (Li-7) [µg/mL] | IC50 (G361) [µg/mL] | Inhibition ratio (%) (5-lipoxygenase; 10⁻⁴ mol/ℓ) | Inhibition ratio (%) (5-lipoxygenase; 10⁻⁵ mol/ℓ) | Inhibition ratio (%) (5-lipoxygenase; 10⁻⁶ mol/ℓ) | zone of inhibition at 100 µg/mL (Staphylococcus aureus) [mm] | zone of inhibition at 100 µg/mL (Fusarium roseum) [mm] | zone of inhibition at 100 µg/mL [2] [mm] | zone of inhibition at 100 µg/mL (Botrytis fabae) [mm] | zone of inhibition at 100 µg/mL (Candida albicans [3]) [mm] | zone of inhibition at 100 µg/mL (Escherichia coli) [mm] | zone of inhibition at 100 µg/mL (Aspergillus oryzae) [mm] | zone of inhibition at 100 µg/mL (Mucor japonicus) [mm] | zone of inhibition at 100 µg/mL (Saccharomyces cerevisiae) [mm] | zone of inhibition at 100 µg/mL (Bacillus subtilis) [mm] | zone of inhibition at 100 µg/mL (Mycosphaerella melonis) [mm] | also measured
[C-]#[N+]C(=Cc1ccc(OC)c(OC)c1)C(Cc1ccc(OC)cc1)[N+]#[C-] (centres unmarked) [NK372135B] | 0.76 (≈ 2.18 µM) | 2.55 (≈ 7.32 µM) | 1.8 (≈ 5.17 µM) | 2.4 (≈ 6.89 µM) | 33.3 | 5.0 | 0 | – | – | – | – | – | – | – | – | – | – | – | IC50 (Candida albicans [1]; read-out: IC₅₀): 1.5 µg/mL (≈ 4.31 µM)
[C-]#[N+]C(=Cc1ccc(OC)cc1)C(Cc1ccc(OC)cc1)[N+]#[C-] (centres unmarked) [NK372135A] | 1.05 (≈ 3.3 µM) | 1.65 (≈ 5.18 µM) | 1.45 (≈ 4.55 µM) | 2.13 (≈ 6.69 µM) | 37.1 | 5.0 | 0 | 20.5 | 9 | 30 | 25 | 30 | 20 | 20 | 15 | 25 | 21.5 | 18 | zone of inhibition at 100 µg/mL (Mycobacterium smegmatis): 21 mm
methoxy-xanthocillin monomethyl ether [XTM, reference compound] | – | – | – | – | – | – | – | – | – | – | – | – | – | – | – | – | – | – | Cytotoxicity IC₅₀ (Li-7): 0.57 µg/mL
[C-]#[N+]C(=C\c1ccc(OC)cc1)/C(=C/c1ccc(OC)c(OC)c1)[N+]#[C-] [methoxy-xanthocillin X dimethyl ether, reference compound] | – | – | – | – | – | – | – | – | – | – | – | – | – | – | – | – | – | – | IC₅₀ (Candida albicans [1]): 9.0 µg/mL
[C-]#[N+]C(=Cc1ccc(OC)c(O)c1)C(Cc1ccc(OC)cc1)[N+]#[C-] (centres unmarked) [NK372135C] | 1.23 (≈ 3.68 µM) | 5.89 (≈ 17.6 µM) | 1.7 (≈ 5.08 µM) | 2.52 (≈ 7.54 µM) | 100 | 25.5 | 12.9 | 26 | 12 | 30 | 25 | 25 | 29 | 21 | 17 | 25 | 28 | 19 | –
